Laboratory results published in patent US4199504A (priority 1978, dated 1980).

What was measured:
[1] = Titration pKa' in 66 percent DMF; format: physicochemical
[2] = system: P388 leukemia; experiment: P388 leukemia transplanted in mice, tumor inhibition or prolongation of survival; format: in vivo
Protocol: (§1) The compounds of this invention and those preparable by the process disclosed herein are active against transplanted tumors in mice in vivo.
(§2) The following table--Table 1--gives the results of experiments in which mice bearing transplanted Gardner lymphosarcoma (GLS), C3 H mammary tumor, B16 melanoma, P 1534(J) leukemia, P388 leukemia or 755 adenocarcinoma were treated with a compound of this invention. In the table, column 1 gives the name of the compound; column 2, the tumor system employed; column 3, the dosage schedule and column 4, the percent inhibition of tumor growth or increased life span.

[3] = system: experimental malignancies; conditions: naturally-occurring Vinca alkaloids; prior patents; cited from earlier work
[4] = system: B16 melanoma; experiment: B16 melanoma transplanted in mice, tumor inhibition or prolongation of survival; format: in vivo
Protocol: as §1, §2

For `CCC1(O)CC2CN(CCc3c([nH]c4ccccc34)C(C(=O)OC)(c3cc4c(cc3OC)N(C)C3C(O)(C(=O)NCCCCNC(=O)C5(O)C(O)C6(CC)C=CCN7CCC8(c9cc(C%10(C(=O)OC)CC%11CN(CCc%12c%10[nH]c%10ccccc%12%10)CC(O)(CC)C%11)c(OC)cc9N(C)C58)C76)C(O)C5(CC)C=CCN6CCC43C65)C2)C1` (stereo not shown) [1,4-bis(4-desacetyl VLB C-3 carboxamido)butane], the “pKa'” value [1] was 7.5 and the “pKa' (first value)” value [1] was 6.6.

In the case of `CCC1(O)CC2CN(CCc3c([nH]c4ccccc34)C(C(=O)OC)(c3cc4c(cc3OC)N(C)C3C(O)(C(=O)NCCCCCCNC(=O)C5(O)C(O)C6(CC)C=CCN7CCC8(c9cc(C%10(C(=O)OC)CC%11CN(CCc%12c%10[nH]c%10ccccc%12%10)CC(O)(CC)C%11)c(OC)cc9N(C)C58)C76)C(O)C5(CC)C=CCN6CCC43C65)C2)C1` (stereo not shown) [1,6-bis(4-Desacetyl VLB C-3 carboxamido)hexane disulfate], the “Percent Inhibition or Prolongation of Survival Time” value (from here on “Percent Inhibition or Prolongation”) ([2]; P388, 0.9 mg./kg. × 3) is reported as 27% and the “Percent Inhibition or Prolongation” value ([2]; P388, 1.2 mg./kg. × 3) is reported as 74%.

For `CCC1(O)CC2CN(CCc3c([nH]c4ccccc34)C(C(=O)OC)(c3cc4c(cc3OC)N(C)C3C(O)(C(=O)NCCCCCCNC(=O)C5(O)C(O)C6(CC)C=CCN7CCC8(c9cc(C%10(C(=O)OC)CC%11CN(CCc%12c%10[nH]c%10ccccc%12%10)CC(O)(CC)C%11)c(OC)cc9N(C)C58)C76)C(O)C5(CC)C=CCN6CCC43C65)C2)C1` (stereo not shown) [1,6-bis(4-desacetyl VLB C-3 carboxamido)hexane], the “pKa'” value [1] was 7.27 and the “pKa' (first value)” value [1] was 5.27.

In the case of `CCC1(O)CN2CCc3c([nH]c4ccccc34)C(C(=O)OC)(c3cc4c(cc3OC)N(C)C3C(O)(C(=O)OC)CC5(CC)C=CCN6CCC43C65)CC(C2)C1O` (stereo not shown) [4-desacetoxy-3'-hydroxyvinblastine], the “active in the treatment of experimental malignancies in animals” value (shortened to “active in the treatment”) [3] is listed as “active”.

In the case of `CCC1(O)CC2CN(CCc3c([nH]c4ccccc34)C(C(=O)OC)(c3cc4c(cc3OC)N(C)C3C(O)(C(=O)OC)CC5(CC)C=CCN6CCC43C65)C2)C1` (stereo not shown) [4-desacetoxyvinblastine], the “active in the treatment” value [3] is listed as “active”.

In the case of `CCC1(O)CC2CN(CCc3c([nH]c4ccccc34)C(C(=O)OC)(c3cc4c(cc3OC)N(C)C3C(O)(C(=O)NCCCSSCCCNC(=O)C5(O)C(O)C6(CC)C=CCN7CCC8(c9cc(C%10(C(=O)OC)CC%11CN(CCc%12c%10[nH]c%10ccccc%12%10)CC(O)(CC)C%11)c(OC)cc9N(C)C58)C76)C(O)C5(CC)C=CCN6CCC43C65)C2)C1` (stereo not shown) [bis [γ-(4-desacetyl VLB C-3 carboxamido)propyl]disulfide disulfate], the “Percent Inhibition or Prolongation” value ([4]; B16, 0.6 mg./kg. × 3) is reported as 99%, the “number of indefinite survivors” value ([4]; B16, 0.6 mg./kg. × 3) is reported as 8 and the “Percent Inhibition or Prolongation” value ([4]; B16, 0.9 mg./kg. × 3) is reported as 61%. For the same compound, the “number of indefinite survivors” value ([4]; B16, 0.9 mg./kg. × 3) was 5, the “Percent Inhibition or Prolongation” value ([4]; B16, 1.2 mg./kg. × 3) was 68% and the “number of indefinite survivors” value ([4]; B16, 1.2 mg./kg. × 3) was 8.

With `CCC1(O)CC2CN(CCc3c([nH]c4ccccc34)C(C(=O)OC)(c3cc4c(cc3OC)N(C)C3C(O)(C(=O)NCCSCCNC(=O)C5(O)C(O)C6(CC)C=CCN7CCC8(c9cc(C%10(C(=O)OC)CC%11CN(CCc%12c%10[nH]c%10ccccc%12%10)CC(O)(CC)C%11)c(OC)cc9N(C)C58)C76)C(O)C5(CC)C=CCN6CCC43C65)C2)C1` (stereo not drawn) [bis[β-(4-Desacetyl VLB C-3 carboxamido)ethyl]sulfide disulfate] the “Percent Inhibition or Prolongation” value ([2]; P388, 0.6 mg./kg. × 3) was 34%, the “Percent Inhibition or Prolongation” value ([2]; P388, 0.9 mg./kg. × 3) was 49% and the “Percent Inhibition or Prolongation” value ([2]; P388, 1.2 mg./kg. × 3) was 33%.

With `CCC12CN3CCc4c([nH]c5ccccc45)C(C(=O)OC)(c4cc5c(cc4OC)N(C)C4C(O)(C(=O)NCCSSCCNC(=O)C6(O)C(O)C7(CC)C=CCN8CCC9(c%10cc(C%11(C(=O)OC)CC%12CN(CCc%13c%11[nH]c%11ccccc%13%11)CC%11(CC)OC%12%11)c(OC)cc%10N(C)C69)C87)C(O)C6(CC)C=CCN7CCC54C76)CC(C3)C1O2` (stereo not drawn) [bis[β-(4-Desacetylleurosine C-3 carboxamido)ethyl]disulfide disulfate] the “Percent Inhibition or Prolongation” value ([2]; P388, 15 mg./kg. × 3) was 46% and the “Percent Inhibition or Prolongation” value ([2]; P388, 30 mg./kg. × 3) was 55%.

For `CCC1(O)CC2CN(CCc3c([nH]c4ccccc34)C(C(=O)OC)(c3cc4c(cc3OC)N(C)C3C(O)(C(=O)NCC[Se][Se]CCNC(=O)C5(O)C(O)C6(CC)C=CCN7CCC8(c9cc(C%10(C(=O)OC)CC%11CN(CCc%12c%10[nH]c%10ccccc%12%10)CC(O)(CC)C%11)c(OC)cc9N(C)C58)C76)C(O)C5(CC)C=CCN6CCC43C65)C2)C1` (stereo not drawn) [bis[β-(4-desacetyl VLB C-3 carboxamido)ethyl]diselenide], the “pKa'” value [1] was 7.22 and the “pKa' (first value)” value [1] was 5.10.

With `CCC1(O)CC2CN(CCc3c([nH]c4ccccc34)C(C(=O)OC)(c3cc4c(cc3OC)N(C)C3C(O)(C(=O)NCCOCCNC(=O)C5(O)C(O)C6(CC)C=CCN7CCC8(c9cc(C%10(C(=O)OC)CC%11CN(CCc%12c%10[nH]c%10ccccc%12%10)CC(O)(CC)C%11)c(OC)cc9N(C)C58)C76)C(O)C5(CC)C=CCN6CCC43C65)C2)C1` (stereo not drawn) [bis[β-(4-desacetyl VLB C-3 carboxamido)ethyl]ether] the “pKa'” value [1] was 7.21 and the “pKa' (first value)” value [1] was 5.13.

With `CCC12CN3CCc4c([nH]c5ccccc45)C(C(=O)OC)(c4cc5c(cc4OC)N(C)C4C(O)(C(=O)NCCSSCCNC(=O)C6(O)C(O)C7(CC)C=CCN8CCC9(c%10cc(C%11(C(=O)OC)CC%12CN(CCc%13c%11[nH]c%11ccccc%13%11)CC%11(CC)OC%12%11)c(OC)cc%10N(C)C69)C87)C(O)C6(CC)C=CCN7CCC54C76)CC(C3)C1O2` (stereo not drawn) [bis[β-(4-desacetylleurosine C-3 carboxamido)ethyl]disulfide] the “pKa'” value [1] was 7.0 and the “pKa' (first value)” value [1] was 5.3.

With `CCC1(O)CC2CN(CCc3c([nH]c4ccccc34)C(C(=O)OC)(c3cc4c(cc3OC)N(C)C3C(O)(C(=O)NCCCNCCCNC(=O)C5(O)C(O)C6(CC)C=CCN7CCC8(c9cc(C%10(C(=O)OC)CC%11CN(CCc%12c%10[nH]c%10ccccc%12%10)CC(O)(CC)C%11)c(OC)cc9N(C)C58)C76)C(O)C5(CC)C=CCN6CCC43C65)C2)C1` (stereo not shown) [bis[γ-(4-desacetyl VLB C-3 carboxamido)propyl]amine] the “pKa'” value [1] was 7.17, the “pKa' (first value)” value [1] was 4.98 and the “pKa' (third printed value)” value [1] was 10.18.

With `CCC1(O)CC2CN(CCc3c([nH]c4ccccc34)C(C(=O)OC)(c3cc4c(cc3OC)N(C)C3C(O)(C(=O)NCCCSSCCCNC(=O)C5(O)C(O)C6(CC)C=CCN7CCC8(c9cc(C%10(C(=O)OC)CC%11CN(CCc%12c%10[nH]c%10ccccc%12%10)CC(O)(CC)C%11)c(OC)cc9N(C)C58)C76)C(O)C5(CC)C=CCN6CCC43C65)C2)C1` (stereo not shown) [bis[γ-(4-desacetyl VLB C-3 carboxamido)propyl]disulfide] the “pKa'” value [1] was 7.21 and the “pKa' (first value)” value [1] was 5.20.

For `CCC1CC2CN(CCc3c([nH]c4ccccc34)C(C(=O)OC)(c3cc4c(cc3OC)N(C)C3C(O)(C(=O)OC)C(OC(C)=O)C5(CC)C=CCN6CCC43C65)C2)C1` (stereo not shown) [deoxy VLB "A"], the “active in the treatment” value [3] is listed as “active”.

In the case of `CCC1(O)CN2CCc3c([nH]c4ccccc34)C(C(=O)OC)(c3cc4c(cc3OC)N(C)C3C(O)(C(=O)OC)C(OC(C)=O)C5(CC)C=CCN6CCC43C65)CC(O)(C2)C1` (stereo not shown) [leurocolombine], the “active in the treatment” value [3] is listed as “active”.

In the case of `CC[C@]1(O)C[C@H]2CN(CCc3c([nH]c4ccccc34)[C@@](C(=O)OC)(c3cc4c(cc3OC)N(C=O)[C@H]3[C@@](O)(C(=O)OC)[C@H](OC(C)=O)[C@]5(CC)C=CCN6CC[C@]43[C@@H]65)C2)C1` [leurocristine], the “active in the treatment” value [3] is given as “active”.

For `CC[C@]12CN3CCc4c([nH]c5ccccc45)[C@@](C(=O)OC)(c4cc5c(cc4OC)N(C=O)[C@H]4[C@@](O)(C(=O)OC)[C@H](OC(C)=O)[C@]6(CC)C=CCN7CC[C@]54[C@@H]76)C[C@@H](C3)[C@H]1O2` [leuroformine], the “active in the treatment” value [3] is listed as “active”.

For `CCC1(O)CC2CN(CCc3c([nH]c4ccccc34)C(C(=O)OC)(c3cc4c(cc3OC)N(C)C3C(O)(C(=O)OC)C(OC(C)=O)C5(CC)C=CCN6CCC43C65)C2)C1` (stereo not shown) [leurosidine], the “active in the treatment” value [3] is listed as “active”.

For `CC[C@]12CN3CCc4c([nH]c5ccccc45)[C@@](C(=O)OC)(c4cc5c(cc4OC)N(C)[C@H]4[C@@](O)(C(=O)OC)[C@H](OC(C)=O)[C@]6(CC)C=CCN7CC[C@]54[C@@H]76)C[C@H](C3)[C@H]1O2` [leurosine], the “active in the treatment” value [3] is listed as “active”.

For `CCC1(O)CC2CN(CCc3c([nH]c4ccccc34)C(C(=O)OC)(c3cc4c(cc3OC)N(C)C3C(O)(C(=O)NCCN(CCNC(=O)C5(O)C(O)C6(CC)C=CCN7CCC8(c9cc(C%10(C(=O)OC)CC%11CN(CCc%12c%10[nH]c%10ccccc%12%10)CC(O)(CC)C%11)c(OC)cc9N(C)C58)C76)CCNC(=O)C5(O)C(O)C6(CC)C=CCN7CCC8(c9cc(C%10(C(=O)OC)CC%11CN(CCc%12c%10[nH]c%10ccccc%12%10)CC(O)(CC)C%11)c(OC)cc9N(C)C58)C76)C(O)C5(CC)C=CCN6CCC43C65)C2)C1` (stereo not drawn) [tris [β-(4-desacetyl VLB C-3 carboxamido)ethyl]amine], the “pKa'” value [1] was 7.25 and the “pKa' (first value)” value [1] was 5.2.

For `CCC1(O)CN2CCc3c([nH]c4ccccc34)C(C(=O)OC)(c3cc4c(cc3OC)N(C)C3C(O)(C(=O)OC)C(OC(C)=O)C5(CC)C=CCN6CCC43C65)CC(C2)C1O` (stereo not shown) [vincadioline], the “active in the treatment” value [3] is listed as “active”.

In the case of `CC[C@]1(O)C[C@@H]2CN(CCc3c([nH]c4ccccc34)[C@@](C(=O)OC)(c3cc4c(cc3OC)N(C)[C@H]3[C@@](O)(C(=O)OC)[C@H](OC(C)=O)[C@]5(CC)C=CCN6CC[C@]43[C@@H]65)C2)C1` [vincaleukoblastine], the “active in the treatment” value [3] is listed as “active”.
